Experimental data from US7320979B2, “N-[(piperazinyl)hetaryl]arylsulfonamide compounds” (Abbott GmbH & Co. KG., priority 2003, dated 2008).

Tests used:
[1] = molecular target: T1, human dopamine D2L receptors (long isoform) (Homo sapiens, UniProt P14416); assay: Dopamine D2L receptor binding, displacement of [125I] iodospiperone; details: footnote: ratio of the Ki values of the D3 and D2L binding tests
T1 construct: expressed in transfected cells; host or cells: HEK-293
Procedure: (§1) The substance to be tested was either dissolved in methanol/Chremophor® (BASF-AG) or in dimethyl sulfoxide and then diluted with water to the desired concentration.
(§2) Each assay mixture was run in triplicate.
The incubation buffer contained 50 mM tris, 120 mM NaCl, 5 mM KCl, 2 mM CaCl2, 2 mM MgCl2 and 0.1% bovine serum albumin. The buffer was adjusted to pH 7.4 with HCl.
(§3) After having been incubated at 25° C. for 60 minutes, the assay mixtures were filtered through a Whatman GF/B glass fiber filter under vacuum using a cell collecting device. The filters were transferred to scintillation viols using a filter transfer system. After 4 ml of Ultima Gold® (Packard) have been added, the samples were shaken for one hour and the radioactivity was then counted in a Beta-Counter (Packard, Tricarb 2000 or 2200CA). The cpm values were converted into dpm using a standard quench series and the program belonging to the instrument.
(§4) The inhibition curves were analyzed by means of iterative nonlinear regression analysis using the Statistical Analysis System (SAS) which is similar to the “LIGAND” program described by Munson and Rodbard.

[2] = molecular target: T2, human dopamine D3 receptors (Homo sapiens, UniProt P35462); assay: Dopamine D3 receptor binding, displacement of [125I]-iodosulpride; details: membranes of HEK-293 cells stably expressing human D3 receptors; 0.1 nM [125I]-iodosulpride; 25° C., 60 minutes
T2 construct: expressed in transfected cells; host or cells: HEK-293
T2 sequence (P35462 whole entry): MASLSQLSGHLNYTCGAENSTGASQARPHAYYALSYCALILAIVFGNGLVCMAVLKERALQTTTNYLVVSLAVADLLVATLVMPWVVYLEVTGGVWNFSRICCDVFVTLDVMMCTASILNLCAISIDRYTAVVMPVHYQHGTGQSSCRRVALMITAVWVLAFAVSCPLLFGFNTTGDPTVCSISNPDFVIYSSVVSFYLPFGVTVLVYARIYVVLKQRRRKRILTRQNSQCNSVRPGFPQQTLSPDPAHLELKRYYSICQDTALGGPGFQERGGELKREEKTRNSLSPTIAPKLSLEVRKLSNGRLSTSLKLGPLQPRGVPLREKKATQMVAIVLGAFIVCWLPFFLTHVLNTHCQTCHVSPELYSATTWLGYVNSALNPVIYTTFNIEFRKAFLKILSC
Procedure: as §1, §2
The incubation buffer contained 50 mM tris, 120 mM NaCl, 5 mM KCl, 2 mM CaCl2, 2 mM MgCl2 and 0.1% bovine serum albumin, 10 μM […] and 0.1% ascorbic acid (prepared fresh daily). The buffer was adjusted to pH 7.4 with HCl.
as §3, §4

T1 sequence (P14416 whole entry, canonical isoform): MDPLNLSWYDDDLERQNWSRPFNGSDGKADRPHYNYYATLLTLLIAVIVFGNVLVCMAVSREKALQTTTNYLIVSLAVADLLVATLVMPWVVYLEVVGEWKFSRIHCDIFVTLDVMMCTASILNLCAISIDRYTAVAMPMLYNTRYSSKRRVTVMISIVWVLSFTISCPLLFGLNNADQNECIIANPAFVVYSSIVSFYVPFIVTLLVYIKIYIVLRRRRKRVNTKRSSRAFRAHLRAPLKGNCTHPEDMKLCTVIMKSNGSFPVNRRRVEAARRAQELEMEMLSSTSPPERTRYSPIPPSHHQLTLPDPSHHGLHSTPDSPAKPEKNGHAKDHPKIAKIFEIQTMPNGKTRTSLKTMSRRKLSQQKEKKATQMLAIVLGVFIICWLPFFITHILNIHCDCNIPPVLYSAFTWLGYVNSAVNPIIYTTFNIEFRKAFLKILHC

Selectivity vs. D2L [1] | Ki [2] [nM] | Molecule
75 | 16.2 | C=CCN1CCN(c2ccc(OS(=O)(=O)c3ccc(C(C)C)cc3)cn2)CC1 [Example 59, 4-Isopropyl-benzenesulfonic acid 6-(4-allyl-piperazin-1-yl)-pyridin-3-yl ester]
47 | 17.4 | CCCN1CCN(c2ccc(OS(=O)(=O)c3ccc(C(C)C)cc3)cn2)CC1.Cl [Example 60, 4-Isopropyl-benzenesulfonic acid 6-(4-propyl-piperazin-1-yl)-pyridin-3-yl ester, hydrochloride]

Molecule | Selectivity vs. D2L [1] | Ki [2] [nM]
N-[2-(4-Allylpiperazin-1-yl)pyridin-5-yl]-4-(N-pyrrolidinyl)benzenesulfonamide fumarate [Example 42] | 33 | 5.3
